One test concerns GVHD. To be noted: 60 mg/kg per day or 120 mg/kg per day; prophylactic and therapeutic dosing; cited from earlier work.
Test [1] deals with human JAK1 (a.a. 837-1142) (Homo sapiens, UniProt P23458). The test can be described thus: In vitro JAK kinase assay (HTRF), JAK1. The format is biochemical. To be noted: 1 mM ATP.
Description: (§1) The catalytic activity of JAK1, JAK2, or JAK3 was assayed by measuring the phosphorylation of a biotinylated peptide. The phosphorylated peptide was detected by homogenous time resolved fluorescence (HTRF). […] Reactions are carried out at room temperature for 1 hour and then stopped with 20 μL 45 mM EDTA, 300 nM SA-APC, 6 nM Eu-Py20 in assay buffer (Perkin Elmer, Boston, MA). Binding to the Europium labeled antibody takes place for 40 minutes and HTRF signal was measured on a Fusion plate reader (Perkin Elmer, Boston, MA).
Test [2] has as its system sclerodermatous chronic GVHD. The test can be described thus: Example 1: murine model of sclerodermatous chronic GVHD, itacitinib and belumosudil. Particulars: PO d21-56; itacitinib 120 mg/kg BID, belumosudil 150 mg/kg QD; FIG. 1. Format: in vivo, C57Bl/6 mice. As to the method: The effects of therapeutic dosing of a selective JAK1 inhibitor (itacitinib), a ROCK2 inhibitor (belumosudil), and a combination the selective JAK1 inhibitor and ROCK2 inhibitor (itacitinib+belumosudil) combination were tested in a murine model of sclerodermatous chronic GVHD. Sclerodermatous chronic GVHD was induced in C57Bl/6 mice using a single acute dose of 8.5 Gy of total body irradiation on Day −1. On Day 0, recipient mice were given an intravenous injection of a combination of splenocytes and bone marrow cells from donor LP/J mice. Starting at day 21, animals were dosed with vehicle, itacitinib, belumosudil, or the combination of both itacitinib and belumosudil (P.O., B.I.D, see Table 2). All animals were monitored on a daily basis to record weight change, survival and GVHD score (see Table 3). On days 33, 36, 39, 42 and 45 all animals were photographed under isoflurane anesthesia to assess disease severity. [table] [table]

In test [3] the target is human JAK2 (a.a. 828-1132) (Homo sapiens (Human), UniProt O60674). The test can be described thus: In vitro JAK kinase assay (HTRF), JAK2. The format is biochemical. Particulars: JAK2/JAK1 IC50 ratio, 1 mM ATP.
human JAK2 (a.a. 828-1132), sequence (O60674 828-1132): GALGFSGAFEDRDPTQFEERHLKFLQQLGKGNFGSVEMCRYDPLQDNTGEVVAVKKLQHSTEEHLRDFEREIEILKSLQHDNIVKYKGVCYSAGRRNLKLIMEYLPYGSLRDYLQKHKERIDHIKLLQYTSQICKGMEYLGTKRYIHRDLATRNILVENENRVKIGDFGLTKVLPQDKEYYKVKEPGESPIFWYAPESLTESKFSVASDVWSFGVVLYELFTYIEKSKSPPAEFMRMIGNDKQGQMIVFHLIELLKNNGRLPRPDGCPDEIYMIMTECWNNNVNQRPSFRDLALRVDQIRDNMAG
Description: as §1
For the next test, the system named is acute GVHD (aGVHD). Particulars: patients, cited from earlier work.
Test [4] concerns sclerodermatous chronic GVHD. In words: Example 2: murine model of sclerodermatous chronic GVHD, ruxolitinib and belumosudil. The format is in vivo, C57Bl/6 mice. To be noted: PO d21-56; ruxolitinib 60 mg/kg BID, belumosudil 150 mg/kg QD; FIG. 3. As to the method:
The effects of therapeutic dosing of a JAK1/2 inhibitor (ruxolitinib), a ROCK2 inhibitor (belumosudil), and a combination of the JAK1/2 inhibitor and ROCK2 inhibitor (ruxolitinib+belumosudil) combination were tested in a murine model of sclerodermatous chronic GVHD. Sclerodermatous chronic GVHD was induced in C57Bl/6 mice using a single acute dose of 8.5 Gy of total body irradiation on Day −1. On Day 0, recipient mice were given an intravenous injection of a combination of splenocytes and bone marrow cells from donor LP/J mice. Starting at day 21, animals were dosed with vehicle, ruxolitinib, belumosudil, or the combination of both ruxolitinib and belumosudil (P.O., B.I.D, see Table 4). All animals were monitored on a daily basis to record weight change, survival and GVHD score (see Table 5). On days 33, 36, 39, 42 and 45 all animals were photographed under isoflurane anesthesia to assess disease severity. [table] [table]

Another test deals with chronic GVHD (cGVHD). To be noted: patients; cited from earlier work.
The next test deals with lung cGVHD. To be noted: cited from earlier work.

SMILES strings stand for the structures. Entries after “also recorded” stand apart in the source; their conditions may differ. Read-outs that look alike come from different tables or passages of the source.

For `N#CCC1(n2cc(-c3ncnc4[nH]ccc34)cn2)CN(C2CCN(C(=O)c3ccnc(C(F)(F)F)c3F)CC2)C1` [Compound 1, {1-{1-[3-Fluoro-2-(trifluoromethyl)isonico-tinoyl]piperidin-4-yl}-3-[4-(7H-pyrrolo[2,3-d]pyrimidin-4-yl)-1H-pyrazol-1-yl]azetidin-3-yl}acetonitrile], the GVHD score result with GVHD is reported as “improvement in the GVHD score”. This compound displayed an IC50 in test [1] below 10 nM. Besides, the “GVHD score compared to vehicle-treated animals” value in test [2] is “reduction in GVHD scores”. Besides, the JAK2/JAK1 in test [3] is above 10. Moreover, in the test on acute GVHD (aGVHD) (listed as itacitinib), the “clinical efficacy in acute GVHD” value was “clinical efficacy; also recorded: significant clinical activity”.
Take `CC(C)NC(=O)COc1cccc(-c2nc(Nc3ccc4[nH]ncc4c3)c3ccccc3n2)c1` [belumosudil, 2-(3-(4-((1H-indazol-5-yl)amino)quinazolin-2-yl)phenoxy)-N-isopropylacetamide, reference compound]: the “GVHD score compared to vehicle-treated animals” value is “reduction in GVHD scores” in test [2] and “no benefit” in test [4].
On to `N#CC[C@H](C1CCCC1)n1cc(-c2ncnc3[nH]ccc23)cn1` [ruxolitinib, (R)-3-(4-(7H-pyrrolo[2,3-d]pyrimidin-4-yl)-1H-pyrazol-1-yl)-3-cyclopentylpropanenitrile], for which, in the test on chronic GVHD (cGVHD), the “clinical efficacy in chronic GVHD” value was “clinical efficacy”. In addition, in the test with lung cGVHD (1 patient), the “increase in FEV1” value is 9%. In addition, in the test with lung cGVHD (5 pediatric patients (4 evaluable) with lung cGVHD), the responses is listed as 2. For the same compound, in the test with lung cGVHD (5 pediatric patients), the “patients able to wean steroids completely” value is given as “Four out of five”. Further, the “decrease of the steroid requirement” value in the test with lung cGVHD (final patient) was above 50%. Besides, the “GVHD score compared to vehicle-treated animals” value in test [4] is “numerical reduction in GVHD scores”. Moreover, the “clinical efficacy in acute GVHD” value in the test with acute GVHD (aGVHD) is on record as “clinical efficacy”.

Source of the values: patent publication US11918581B2, “Combination therapy comprising JAK pathway inhibitor and rock inhibitor” (Incyte Corporation, priority 2021, dated 2024).
